Like-named read-outs stand apart in the source and are kept apart here.
Experiments:
[1] = target: T1, glucocorticoid receptor (Homo sapiens, UniProt P04150); assay: Hep G2 TAT assay: induction of TAT by dexamethasone in HepG2 cells; format: cell-based
T1 construct: host or cells: HepG2
T1 sequence (P04150 1-777): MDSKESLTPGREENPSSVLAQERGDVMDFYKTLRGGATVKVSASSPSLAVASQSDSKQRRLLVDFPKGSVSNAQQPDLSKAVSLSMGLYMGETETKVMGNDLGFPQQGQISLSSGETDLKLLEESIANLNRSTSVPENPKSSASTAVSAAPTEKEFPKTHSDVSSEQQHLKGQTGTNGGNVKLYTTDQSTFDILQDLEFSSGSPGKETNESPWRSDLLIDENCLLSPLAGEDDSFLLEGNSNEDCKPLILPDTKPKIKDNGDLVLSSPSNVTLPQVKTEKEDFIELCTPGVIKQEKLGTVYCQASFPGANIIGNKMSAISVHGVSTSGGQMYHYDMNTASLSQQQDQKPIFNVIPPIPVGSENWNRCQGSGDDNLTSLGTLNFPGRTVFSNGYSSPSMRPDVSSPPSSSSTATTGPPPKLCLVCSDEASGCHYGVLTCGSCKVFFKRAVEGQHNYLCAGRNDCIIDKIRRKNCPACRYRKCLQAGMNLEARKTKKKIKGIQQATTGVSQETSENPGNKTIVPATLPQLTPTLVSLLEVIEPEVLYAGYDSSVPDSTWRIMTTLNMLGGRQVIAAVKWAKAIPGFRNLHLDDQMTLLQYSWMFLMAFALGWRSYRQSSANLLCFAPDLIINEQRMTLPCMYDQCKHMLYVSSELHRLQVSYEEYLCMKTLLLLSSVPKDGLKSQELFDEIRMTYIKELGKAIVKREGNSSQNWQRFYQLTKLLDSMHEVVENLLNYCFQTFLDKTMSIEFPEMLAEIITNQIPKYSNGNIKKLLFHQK
Method: Glucocorticoid mediated activation of TAT occurs by transactivation of glucocorticoid response elements in the TAT promoter by glucocorticoid receptor-agonist complex.
TAT activity was measured as outlined in the literature by A. Ali et al., J. Med. Chem., 2004, 47, 2441-2452.
HepG2 cells were cultured using MEME media supplemented with 10% (v/v) foetal bovine serum; 2 mM L-glutamine and 1% (v/v) NEAA at 37° C., 5%/95% (v/v) CO2/air. The HepG2 cells were counted and adjusted to yield a density of 0.125×10^6 cells/ml in RPMI 1640 without phenol red, 10% (v/v) charcoal stripped FBS, 2 mM L-glutamine and seeded at 25,000 cells/well in 200 μl into 96 well, sterile, tissue culture micro titre plates, and incubated at 37° C., 5% CO2 for 24 hours
Growth media was removed and replaced with assay media {RPMI 1640 without phenol red, 2 mM L-glutamine+10 μM forskolin}. […] Compounds were serially half log diluted in 100% (v/v) dimethylsulphoxide from a 10 mM stock.
HepG2 cells were then lysed with 30 μl of cell lysis buffer containing a protease inhibitor cocktail for 15 minutes at 4° C. 155 μl of substrate mixture was then added containing 5.4 mM Tyrosine sodium salt, 10.8 mM alpha ketoglutarate and 0.06 mM pyridoxal 5′ phosphate in 0.1 M potassium phosphate buffer (pH 7.4). After 2 hours incubation at 37° C. the reaction was terminated by the addition of 15 μl of 10 M aqueous potassium hydroxide solution, and the plates incubated for a further 30 minutes at 37° C. The TAT activity product was measured by absorbance at λ 340 nm.
[compound] and fitting the data to a 4 parameter logistic equation.

[2] = Rat pharmacokinetics (PK) studies, oral gavage cassette; format: in vivo, male Sprague Dawley rats; details: male, Sprague Dawley (or equivalent), rat plasma; for AUC(0-t): read-out: AUC0-24
Method: Rat PK studies were conducted in male Sprague Dawley rats (or equivalent) with 3 rats per group. Compounds were evaluated in cassettes of 4 compounds per cassette, with each cassette containing 3 test compounds and one comparator compound with known PK parameters. Rats were cannulated in the jugular vein. The compounds were administered by oral gavage using a suitable vehicle, such as 10% DMSO and 90% methyl cellulose. Compounds of Example 1, Example 10, Example 14, and Example 20 were evaluated with a nominal dose of 1.25 mg/kg and the compound of Example 32 was evaluated with a nominal dose of 3 mg/kg. Blood samples were collected at various timepoints out to 24 hours post-dose and processed to provide plasma. Compound concentrations in the plasma samples were determined by LC/MS analysis. Cmax and AUC were calculated using WinNonlin.

[3] = target: T2, GR (Homo sapiens, UniProt P04150); assay: GR binding
T2 sequence (P04150 1-777): T1 sequence (P04150 1-777)

Compound | Ki [1] | Cmax ([2]; nominal dose 1.25 mg/kg) | AUC(0-t) ([2]; nominal dose 1.25 mg/kg) | IC50 [3] | further results
N#Cc1ccc(C2=CCC(c3[nH]c(=O)[nH]c(=O)c3Cc3ccccc3)CC2)c(Cl)c1 (centres unmarked) [Example 1, 4′-(5-benzyl-2,6-dioxo-1,2,3,6-tetrahydropyrimidin-4-yl)-2-chloro-2′,3′,4′,5′-tetrahydro-[1,1′-biphenyl]-4-carbonitrile] | 28 nM | 114 ng/mL | 991 ng·h/mL | – | –
O=c1[nH]c(C2CC=C(c3ccc(Cl)cc3C(F)(F)F)CC2)c(Cc2ccccc2)c(=O)[nH]1 (centres unmarked) [Example 10] | 38 nM | 196 ng/mL | 3040 ng·h/mL | – | –
O=c1[nH]c(C2CC=C(c3cccnc3C(F)(F)F)CC2)c(Cc2ccccc2)c(=O)[nH]1 (centres unmarked) [Example 14] | 41 nM | 63 ng/mL | 188 ng·h/mL | – | –
COc1cc(C#N)ccc1C1=CCC(c2[nH]c(=O)[nH]c(=O)c2Cc2ccccc2)CC1 (centres unmarked) [Example 20] | 33 nM | 83.6 ng/mL | 375 ng·h/mL | – | –
N#Cc1ccc(C2=CCC(c3[nH]c(=O)[nH]c(=O)c3Cc3ccccc3)CC2)c(C(F)(F)F)c1 (centres unmarked) [Example 32] | 66 nM | – | – | – | Cmax ([2]; nominal dose 3 mg/kg): 453 ng/mL; AUC(0-t) ([2]; nominal dose 3 mg/kg): 988 ng·h/mL
CNS(=O)(=O)c1cc(C(F)(F)F)ccc1C1=CCC(c2[nH]c(=O)[nH]c(=O)c2Cc2ccccc2)CC1 (centres unmarked) [Example 96] | – | – | – | 5090 nM | –
CN(C)S(=O)(=O)c1cc(C(F)(F)F)ccc1C1=CCC(c2[nH]c(=O)[nH]c(=O)c2Cc2ccccc2)CC1 (centres unmarked) [Example 97] | – | – | – | 2560 nM | –
CN(C)S(=O)(=O)c1cc(F)c(C2=CCC(c3[nH]c(=O)[nH]c(=O)c3Cc3ccccc3)CC2)c(F)c1 (centres unmarked) [Example 104] | – | – | – | 3160 nM | –
CCS(=O)(=O)c1cc(F)c(C2=CCC(c3[nH]c(=O)[nH]c(=O)c3Cc3ccccc3)CC2)c(F)c1 (centres unmarked) [Example 105] | – | – | – | 71.6 nM | –
CS(=O)(=O)c1ccc(C2=CCC(c3[nH]c(=O)[nH]c(=O)c3Cc3ccccc3)CC2)c(Cl)c1 (centres unmarked) [Example 106] | – | – | – | 2.1 nM | –
CCS(=O)(=O)c1ccc(C2=CCC(c3[nH]c(=O)[nH]c(=O)c3Cc3ccccc3)CC2)c(Cl)c1 (centres unmarked) [Example 107] | – | – | – | 2.8 nM | –
O=c1[nH]c(C2CC=C(c3ccc(OC(F)F)cc3Cl)CC2)c(Cc2ccccc2)c(=O)[nH]1 (centres unmarked) [Example 108] | – | – | – | 5.4 nM | –
CN(C)c1ncccc1C1=CCC(c2[nH]c(=O)[nH]c(=O)c2Cc2ccccc2)CC1 (centres unmarked) [Example 118] | – | – | – | 0.76 nM | –
